Measured values: PubChem BioAssay (NCI)
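Five concentrations, 48 hours, 96-well plates. At the GI50, growth is halved. Definition used: TGI = concentration required for complete inhibition of growth.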

Tests used:
Assay in all cases: NCI anticancer screen, dose series, 48 h
NCI-H460 lung = system: NCI-H460 lung
SR leukemia = system: SR leukemia
SNB-19 CNS = system: SNB-19 CNS
NCI-H226 lung = system: NCI-H226 lung
SK-MEL-5 melanoma = system: SK-MEL-5 melanoma
RXF 393 renal = system: RXF 393 renal
NCI-H23 lung = system: NCI-H23 lung
NCI-H522 lung = system: NCI-H522 lung
HCT-15 colon = system: HCT-15 colon
EKVX NSCLC = system: EKVX NSCLC

Compound | TGI (NCI-H460 lung) [µM] | TGI (SR leukemia) [µM] | TGI (SNB-19 CNS) [µM] | TGI (NCI-H226 lung) [µM] | TGI (SK-MEL-5 melanoma) [µM] | TGI (RXF 393 renal) [µM] | TGI (NCI-H23 lung) [µM] | TGI (NCI-H522 lung) [µM] | TGI (HCT-15 colon) [µM] | TGI (EKVX NSCLC) [µM] | GI50 (RXF 393 renal) [µM] | GI50 (NCI-H460 lung) [µM] | GI50 (SNB-19 CNS) [µM] | GI50 (NCI-H226 lung) [µM]
COc1cc2c(/C=C3/C(=O)Nc4ccc(Cl)cc43)c(Cl)[nH]c2cc1C | 13.9 | 0.926 | 12.7 | 13.3 | 10.4 | 20.5 | 7.13 | 7.01 | 4.7 | – | – | – | – | –
O=C(O)c1nc2ccc(C(F)(F)F)cc2nc1Nc1ccc(F)cc1 | 50.9 | 36.8 | – | 57 | > 100 | 31.5 | 37.6 | 24.7 | 70.2 | 73.9 | – | – | – | –
N/C1=C/C(=O)NC(=O)c2c(c3ccccc3oc2=O)C1 | > 100 | > 100 | > 100 | > 100 | – | > 100 | > 100 | > 100 | > 100 | > 100 | – | – | – | –
C/C(N=NS(=O)(=O)c1ccc([N+](=O)[O-])cc1)=C1\C=CC=CN1O | > 100 | > 100 | > 100 | – | > 100 | – | > 100 | > 100 | > 100 | > 100 | – | – | – | –
C[C@@H]1CC(=O)C[C@@H]2CC[C@H]3[C@@H]4CC[C@H](OC(=O)c5cccc6cc7ccccc7nc56)[C@H]4CC[C@@H]3[C@H]21 | 30.8 | – | 37.5 | 63.7 | 28.3 | 34.9 | 30.4 | 20.1 | 36.6 | 34.7 | – | – | – | –
CC(=O)OC1[C@H](OC(C)=O)C2=C(C)[C@@H](OC(C)=O)C[C@@]2(C(C)(C)O)[C@@H](OC(C)=O)[C@H]2[C@@]1(C)[C@@H](OC(C)=O)CC(OC(C)=O)[C@]21CO1 (stereo partly drawn) | – | > 100 | > 100 | > 100 | > 100 | > 100 | > 100 | > 100 | > 100 | > 100 | – | – | – | –
CCCCOC(=O)C1CC[C@H]2[C@@H]3CCc4cc(OC(=O)c5cccc6c(=O)c7ccccc7[nH]c56)ccc4[C@H]3CC[C@]12C (stereo partly drawn) | – | – | – | 20.6 | 12.8 | 17 | 16.6 | 16.9 | 13.5 | 8.77 | – | – | – | –
C=C=CC(NC(=O)c1ccccc1)(C(=O)O)C(F)(F)F (stereo not drawn) | > 100 | > 100 | > 100 | > 100 | > 100 | > 100 | > 100 | – | > 100 | > 100 | – | – | – | –
CC1OC2OC3C(OCC(O)C3O)OC(=O)[C@]34CCC(C)(C)CC3C3=CCC5[C@@]6(C)C[C@H](O)[C@H](OC7OC(CO)C(O)C(O)C7OC7OCC(OC(=O)CC(C)(O)CC(=O)OC1C(O)C2O)C(O)C7O)[C@@](C)(CO)C6CC[C@@]5(C)[C@]3(C)CC4 (stereo partly drawn) | 23.9 | 20.3 | 21.3 | 35.9 | 16.3 | – | 10.1 | 12 | 19.2 | – | – | – | – | –
Cc1ccc2nc(-c3ccc(C(C)(C)C)cc3)oc(=O)c2c1 | 41.6 | 59.7 | 74.2 | – | 27.6 | 88.5 | 68.1 | 35 | 54 | 69.8 | – | – | – | –
COC1C(N(C)C)=C(c2ccccc2)C(=O)N2CCc3ccccc3C12 (stereo not drawn) | – | – | > 100 | > 100 | > 100 | > 100 | > 100 | > 100 | > 100 | > 100 | – | – | – | –
O=C(O)/C=C/c1c[nH]c(=O)[nH]c1=O | > 500 | – | > 500 | > 500 | > 500 | > 500 | > 500 | > 500 | > 500 | > 500 | > 500 | – | – | –
CC12CCC(CC1)C(C)(C)O2 | 12.3 | – | 103 | 42.4 | 21.8 | 56.9 | 121 | 77.3 | 71.8 | 104 | – | 1.24 | 20.8 | 6.25
Cc1cccc(N2C(=O)C3c4[nH]c5ccc(C)cc5c4C4CCC(C(C)(C)C)CC4C3C2=O)c1 (stereo not drawn) | 36.3 | – | > 100 | 36.5 | > 100 | – | > 100 | 45.7 | > 100 | 85.6 | – | – | – | –
CNc1ncnc2c1nc(NC1CCCC1)n2C1OC(CO)C(O)C1O (stereo not drawn) | > 100 | – | > 100 | – | > 100 | > 100 | > 100 | > 100 | > 100 | – | – | – | – | –
C/C(=N\Nc1nc2ccccc2s1)c1cc2ccccc2cn1 | 33.7 | – | > 100 | 7.56 | 11.9 | 16 | 18.1 | 26 | 34.3 | 69.4 | – | – | – | –
CC1(C)OC2OC(C(COS(=O)(=O)C(F)(F)F)N=[N+]=[N-])C(OC(=O)c3ccccc3)C2O1 (stereo not drawn) | > 100 | – | > 100 | > 100 | > 100 | > 100 | > 100 | – | > 100 | > 100 | – | – | – | –
Cn1c(=O)c2c(nc3sc4ccccc4c(=O)n32)n(C)c1=O | > 100 | – | > 100 | > 100 | > 100 | > 100 | > 100 | – | > 100 | > 100 | – | – | – | –
CC(C)=CC[C@]12CCN(C)[C@H]1N(S(=O)(=O)c1ccccc1)c1ccccc12 | > 73.5 | > 100 | > 100 | > 100 | – | > 71.7 | > 100 | 41.8 | > 100 | > 63.9 | – | – | – | –
COc1nc2ccc(COc3ccc(C(=O)O)cc3)cc2nc1OC | > 100 | > 100 | > 100 | > 100 | > 100 | – | > 100 | > 100 | > 100 | > 100 | – | – | – | –
O=C(O)[C@H](CCC[C@H]1C(=O)O[C@H](c2ccccc2)[C@H](c2ccccc2)N1C(=O)OCc1ccccc1)N[C@@H](c1ccccc1)[C@H](O)c1ccccc1 | > 100 | 52.3 | 61.3 | – | 43 | 47.9 | 85.4 | 38.6 | > 100 | > 100 | – | – | – | –
